{"source": "patent US20210386674A1", "about": "“MODIFIED RELEASE TABLET FORMULATIONS CONTAINING PHOSPHODIESTERASE INHIBITOR” (UNION therapeutics A/S, priority 2019, published 2021)", "key": {"Solubility of Compound A": {"assay": "Solubility of Compound A", "format": "physicochemical"}, "[1]": {"assay": "Oral absorption window in the gastrointestinal tract", "format": "in vivo", "settings": "given orally; upper part of the gastrointestinal tract"}}}
{"smiles": "O=C(Cc1c(Cl)c[n+]([O-])cc1Cl)c1ccc(OC(F)F)c2c1OC1(CCS(=O)(=O)CC1)O2", "note": "[Compound A, 2-(3,5-Dichloro-1-oxido-pyridine-4-yl)-1-(7-difluoro-methoxy-2′,3′,5′,6-tetrahydro-spiro[1,3-benzodioxole-2,4-(4H)-thiopyran-1′,1′-dioxide]-4-yl)ethanone]", "values": [{"measurement": "Solubility", "setting": "Solubility of Compound A", "value": "poorly soluble"}, {"measurement": "Absorption window", "setting": "[1]", "value": "very narrow absorption window"}]}
